Article PMC6539310, “Investigation on the Enzymatic Profile of Mulberry Alkaloids by Enzymatic Study and Molecular Docking” (Molecules, 2019)
Read-outs that look alike come from different tables or passages of the source.

Assays:
α-amylase = α-amylase inhibition assay (starch-iodine); type: biochemical; conditions: for α-Amylase Inhibition, Inhibition Ratio (%): at 1 × 10^−5 M
Method: (§1) Sucrase and maltase were obtained from the intestinal brush border of Wistar rats. […] Each stock solution was prepared with distilled water. All other solvents and chemicals were of analytical purity.
α-amylase was pre-incubated with different compound concentrations (0.016–100 μmol/L) at 37 °C for 15 min, and the reaction was initiated with the addition of 100 µL of 0.04% starch solution. After incubation at 37 °C for 10 min, 0.1 M iodine reagent was added. Absorption at 660 nm was measured to determine the remaining amount of starch in the reaction and thus calculate the inhibitory effect in the different samples.

maltase = maltase (Rattus norvegicus, UniProt D3ZTX4); assay: Enzyme-kinetic analysis on maltase (Lineweaver–Burk plots); type: biochemical, Wistar rats; conditions: maltose substrate
maltase, sequence (D3ZTX4 1-4511): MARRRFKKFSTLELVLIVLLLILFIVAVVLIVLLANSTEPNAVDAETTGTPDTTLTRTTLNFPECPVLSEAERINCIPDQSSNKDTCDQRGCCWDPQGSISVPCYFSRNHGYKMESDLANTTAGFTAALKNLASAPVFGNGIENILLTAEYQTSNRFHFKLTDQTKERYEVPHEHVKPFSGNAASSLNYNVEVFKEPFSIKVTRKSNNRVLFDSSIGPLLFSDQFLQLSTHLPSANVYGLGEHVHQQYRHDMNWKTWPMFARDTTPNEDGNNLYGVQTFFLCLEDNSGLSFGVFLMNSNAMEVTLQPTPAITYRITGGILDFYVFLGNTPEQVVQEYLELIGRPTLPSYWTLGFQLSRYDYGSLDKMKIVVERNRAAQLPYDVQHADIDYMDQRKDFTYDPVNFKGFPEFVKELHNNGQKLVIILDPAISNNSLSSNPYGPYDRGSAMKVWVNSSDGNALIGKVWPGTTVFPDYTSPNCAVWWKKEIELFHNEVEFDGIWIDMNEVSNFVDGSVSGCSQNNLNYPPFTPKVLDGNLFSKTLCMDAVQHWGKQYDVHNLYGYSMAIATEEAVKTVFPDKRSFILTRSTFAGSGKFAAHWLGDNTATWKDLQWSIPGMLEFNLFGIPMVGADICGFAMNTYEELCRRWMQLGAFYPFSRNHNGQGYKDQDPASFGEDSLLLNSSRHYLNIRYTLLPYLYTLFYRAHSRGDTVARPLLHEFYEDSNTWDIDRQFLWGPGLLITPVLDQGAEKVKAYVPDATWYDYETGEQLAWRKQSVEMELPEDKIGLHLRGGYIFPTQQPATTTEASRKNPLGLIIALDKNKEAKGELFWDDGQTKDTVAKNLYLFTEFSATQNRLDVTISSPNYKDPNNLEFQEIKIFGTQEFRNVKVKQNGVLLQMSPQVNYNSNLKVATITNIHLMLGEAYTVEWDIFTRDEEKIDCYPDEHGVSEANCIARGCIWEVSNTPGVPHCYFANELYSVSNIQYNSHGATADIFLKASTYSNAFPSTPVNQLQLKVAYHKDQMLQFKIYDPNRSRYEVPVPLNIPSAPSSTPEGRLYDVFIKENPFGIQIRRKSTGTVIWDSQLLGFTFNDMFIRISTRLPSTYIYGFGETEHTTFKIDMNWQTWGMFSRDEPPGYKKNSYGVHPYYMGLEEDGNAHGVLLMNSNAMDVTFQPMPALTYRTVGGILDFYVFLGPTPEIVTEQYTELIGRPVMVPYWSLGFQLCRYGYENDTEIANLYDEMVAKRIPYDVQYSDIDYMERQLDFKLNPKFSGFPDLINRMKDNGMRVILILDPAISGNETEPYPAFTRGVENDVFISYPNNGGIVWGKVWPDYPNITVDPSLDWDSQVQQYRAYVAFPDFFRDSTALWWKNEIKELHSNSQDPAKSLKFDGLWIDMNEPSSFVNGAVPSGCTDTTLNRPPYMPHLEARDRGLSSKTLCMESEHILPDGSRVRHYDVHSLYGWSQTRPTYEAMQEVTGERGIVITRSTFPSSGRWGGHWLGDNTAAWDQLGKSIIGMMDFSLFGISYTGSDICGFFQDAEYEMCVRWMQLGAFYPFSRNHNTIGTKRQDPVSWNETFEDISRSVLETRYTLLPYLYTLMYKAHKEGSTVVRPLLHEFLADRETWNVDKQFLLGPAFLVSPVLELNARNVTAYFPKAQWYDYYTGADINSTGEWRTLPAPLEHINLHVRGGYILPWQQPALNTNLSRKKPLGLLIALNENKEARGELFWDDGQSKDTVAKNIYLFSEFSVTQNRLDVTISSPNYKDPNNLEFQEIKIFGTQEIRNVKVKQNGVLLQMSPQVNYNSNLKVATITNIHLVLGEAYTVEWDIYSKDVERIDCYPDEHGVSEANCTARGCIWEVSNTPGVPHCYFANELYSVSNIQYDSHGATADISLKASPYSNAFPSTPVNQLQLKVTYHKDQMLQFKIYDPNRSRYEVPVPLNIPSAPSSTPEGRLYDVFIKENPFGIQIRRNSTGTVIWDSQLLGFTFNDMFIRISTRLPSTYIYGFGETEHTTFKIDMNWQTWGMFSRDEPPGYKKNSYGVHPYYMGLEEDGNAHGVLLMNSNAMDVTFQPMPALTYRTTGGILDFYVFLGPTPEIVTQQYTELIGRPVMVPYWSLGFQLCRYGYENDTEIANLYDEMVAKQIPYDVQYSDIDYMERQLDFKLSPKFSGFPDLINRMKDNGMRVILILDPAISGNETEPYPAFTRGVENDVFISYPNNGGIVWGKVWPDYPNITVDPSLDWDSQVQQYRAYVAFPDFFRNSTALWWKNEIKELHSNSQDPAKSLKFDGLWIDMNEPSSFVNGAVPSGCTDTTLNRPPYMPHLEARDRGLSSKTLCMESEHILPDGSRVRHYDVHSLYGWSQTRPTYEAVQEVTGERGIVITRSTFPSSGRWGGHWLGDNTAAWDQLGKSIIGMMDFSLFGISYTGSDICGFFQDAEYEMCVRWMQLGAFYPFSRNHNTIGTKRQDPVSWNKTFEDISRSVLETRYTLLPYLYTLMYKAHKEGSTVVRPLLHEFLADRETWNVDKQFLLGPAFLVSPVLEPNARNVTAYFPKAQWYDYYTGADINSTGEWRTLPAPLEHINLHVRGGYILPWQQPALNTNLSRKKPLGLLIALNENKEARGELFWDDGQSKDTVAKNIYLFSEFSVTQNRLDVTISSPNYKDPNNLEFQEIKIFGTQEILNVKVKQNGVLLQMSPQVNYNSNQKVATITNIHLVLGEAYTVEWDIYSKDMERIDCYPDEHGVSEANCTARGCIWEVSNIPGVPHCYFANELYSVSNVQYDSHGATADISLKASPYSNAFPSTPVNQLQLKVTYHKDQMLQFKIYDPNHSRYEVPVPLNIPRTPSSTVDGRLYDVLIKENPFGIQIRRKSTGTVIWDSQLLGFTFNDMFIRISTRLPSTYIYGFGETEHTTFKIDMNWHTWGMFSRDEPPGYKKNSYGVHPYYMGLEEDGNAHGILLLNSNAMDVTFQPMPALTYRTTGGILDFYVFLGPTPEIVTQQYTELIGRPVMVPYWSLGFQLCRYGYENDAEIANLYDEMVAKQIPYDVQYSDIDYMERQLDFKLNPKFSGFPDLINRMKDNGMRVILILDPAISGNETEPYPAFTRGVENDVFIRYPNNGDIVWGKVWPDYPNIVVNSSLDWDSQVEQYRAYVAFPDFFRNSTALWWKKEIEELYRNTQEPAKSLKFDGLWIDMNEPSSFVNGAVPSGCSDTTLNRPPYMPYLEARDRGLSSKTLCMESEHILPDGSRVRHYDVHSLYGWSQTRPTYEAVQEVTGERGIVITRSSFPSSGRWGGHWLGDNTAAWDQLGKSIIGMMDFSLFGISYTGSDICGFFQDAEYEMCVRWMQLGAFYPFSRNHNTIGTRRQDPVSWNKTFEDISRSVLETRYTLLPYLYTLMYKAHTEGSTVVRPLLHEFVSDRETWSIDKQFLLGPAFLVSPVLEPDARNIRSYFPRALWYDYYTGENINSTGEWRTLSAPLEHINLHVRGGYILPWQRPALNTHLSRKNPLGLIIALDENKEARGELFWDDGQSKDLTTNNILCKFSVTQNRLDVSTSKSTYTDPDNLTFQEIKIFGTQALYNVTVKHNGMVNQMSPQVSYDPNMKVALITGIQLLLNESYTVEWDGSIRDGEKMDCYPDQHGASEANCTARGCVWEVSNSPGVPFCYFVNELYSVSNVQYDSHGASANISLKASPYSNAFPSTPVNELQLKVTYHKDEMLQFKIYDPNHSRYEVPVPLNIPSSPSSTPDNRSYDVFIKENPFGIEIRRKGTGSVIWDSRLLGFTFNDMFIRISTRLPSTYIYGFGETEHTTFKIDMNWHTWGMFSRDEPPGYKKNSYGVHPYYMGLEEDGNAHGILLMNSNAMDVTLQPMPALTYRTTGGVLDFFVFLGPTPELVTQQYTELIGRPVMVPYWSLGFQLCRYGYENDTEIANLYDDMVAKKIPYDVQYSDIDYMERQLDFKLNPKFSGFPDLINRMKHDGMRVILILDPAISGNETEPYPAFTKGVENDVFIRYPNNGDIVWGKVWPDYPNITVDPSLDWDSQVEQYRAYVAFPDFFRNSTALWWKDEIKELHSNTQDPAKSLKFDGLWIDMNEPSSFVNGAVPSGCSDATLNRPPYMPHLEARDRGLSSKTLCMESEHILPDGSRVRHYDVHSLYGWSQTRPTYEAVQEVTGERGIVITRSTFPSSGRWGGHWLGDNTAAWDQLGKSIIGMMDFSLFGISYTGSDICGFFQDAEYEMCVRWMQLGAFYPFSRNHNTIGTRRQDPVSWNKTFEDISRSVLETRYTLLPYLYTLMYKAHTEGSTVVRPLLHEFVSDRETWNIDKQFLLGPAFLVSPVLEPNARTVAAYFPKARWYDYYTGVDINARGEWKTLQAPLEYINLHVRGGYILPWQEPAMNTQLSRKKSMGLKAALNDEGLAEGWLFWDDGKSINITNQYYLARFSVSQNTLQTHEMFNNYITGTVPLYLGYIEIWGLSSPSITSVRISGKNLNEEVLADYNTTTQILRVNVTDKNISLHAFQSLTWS
Method: as §1
(§2) Lineweaver–Burk double reciprocal plots (LB plots) were then obtained to calculate the kinetic constants and evaluate inhibitory type, the equation is as follows: 1/V = (Km + [S])/(Vmax[S]) = (Km/Vmax) * (1/[S]) + (1/Vmax),
(§3) In this equation, [S] denotes the concentration of substrate, V represents the enzyme reaction velocity and Km is the Michaelis–Menten constant.

sucrase [1] = molecular target: T1, sucrase (Rattus norvegicus, UniProt P23739); assay: Enzyme-kinetic analysis on sucrase (Lineweaver–Burk plots); type: biochemical, Wistar rats; conditions: for Inhibition Type: sucrose substrate; for Ki: from LB plots
T1 construct: Sucrase and maltase were obtained from the intestinal brush border of Wistar rats; from tissue; host or cells: intestinal brush border of Wistar rats
Method: as §1, §2, §3

sucrase [2] = molecular target: T1, sucrase; assay: α-glucosidase inhibition assay, sucrase (sucrose substrate, glucose oxidase readout); type: biochemical, Wistar rats; conditions: for Sucrase Inhibition, Inhibition Ratio (%): at 4 × 10^−5 M
Method: as §1
The modified inhibitory screening system was used to determine inhibitory activity on α-glucosidase. Selected starch, sucrose, and maltose were used as α-glucosidase substrates instead of p-nitrophenyl glucopyranoside. Maltase and sucrase were pre-incubated with different concentrations of compound (0.004–400 μmol/L) at 37 °C for 8 min, and the substrate was then added into initiate the reaction. After incubation at 37 °C for 40 min, 150 μL of glucose oxidase solution was added to each mixture and incubated at 37 °C for 40 min. […] Inhibitory percentage values were calculated using the formula: %Inhibition = (B − C)/B × 100, where B is the formation of glucose under the enzyme without compound and C is the formation of glucose with compound.

[3] = read-out: Sucrase Inhibition IC50

Compound	IC50 (α-amylase) [µM]	Inhibitory activity on α-amylase (in words) (α-amylase)	Inhibition Type (maltase)	Inhibition Type (sucrase [1])	Selectivity sucrase over amylase (IC50 amylase/IC50 disaccharidases) (sucrase [2]; IC50 amylase / IC50 sucrase) [times]	Sucrase Inhibition, Inhibition Ratio (%) (sucrase [2])	IC50 (sucrase [2]; converted from μmol/L by mol wt, read-out: Sucrase IC50 after conversion according to the molecular weight (converted)) [µM]	IC50 (sucrase [2]; [3]) [µM]	α-Amylase Inhibition, Inhibition Ratio (%) (α-amylase)	Ki (sucrase [1]) [µM]
OC[C@H]1NC[C@@H](O)[C@@H]1O [DAB, 1,4-dideoxy-1,4-imino-D-arabinitol]	> 100	no obvious inhibitory activity	Competitive inhibition	–	–	–	–	–	–	–
C[C@H]1O[C@H](O[C@H]2[C@H](O)[C@@H](O)[C@@H](O[C@H]3[C@H](O)[C@@H](O)C(O)O[C@@H]3CO)O[C@@H]2CO)[C@H](O)[C@@H](O)[C@@H]1N[C@H]1C=C(CO)[C@@H](O)[C@H](O)[C@H]1O (stereo partly drawn) [Acarbose, acarbose, reference compound]	–	strongly inhibited	Competitive inhibition	Competitive inhibition	–	–	–	–	–	–
OC[C@H]1NC[C@H](O)[C@@H](O)[C@@H]1O [1-DNJ, 1-deoxynojirimycin]	> 100	no obvious inhibitory activity	Competitive inhibition	Competitive inhibition	1282	100	0.0613	0.078	0	0.0137
OC[C@H]1NCC[C@@H](O)[C@@H]1O [FA, fagomine]	> 100	no obvious inhibitory activity	Competitive inhibition	Competitive inhibition	–	84.6	–	13.5	0	3.97
